# Where “and” joins values, the source holds several entries; their conditions need not be identical. Equal values may be shown once. Read-outs that look alike come from different tables or passages of the source.
# Legend:
# [1] = system: supercoiled pBR322 plasmid DNA; assay type: biochemical
# pBR322 = assay type: biochemical
# [2] = Stability of diazonium compounds (NMR in D2O with acetonitrile internal standard); assay type: physicochemical
# [3] = system: supercoiled pBR322 plasmid DNA; details: for EC50: 525 nm
# [4] = system: linearized (EcoRV-HF-digested) pBR322 double stranded DNA
# [5] = system: supercoiled pBR322 plasmid DNA; details: read-out: EC50 value
# [6] = system: supercoiled pBR322 plasmid DNA
# Method for HeLa cells: General cell culture protocol: HeLa cells were grown in DMEM growth media (GIBCO 11995065) with 10% FBS (GIBCO A5670401) in 75 cm^2 surface treated culture dishes (Fisherbrand FB012937) and were incubated in a cell culture chamber (37° C. with 5% CO2). Cells were kept at a maximum confluency of 80% and passaged up to 20 times. For each passage, the cells were washed with 1×PBS (GIBCO 20012027), detached from the plate by incubation with 0.25% Trypsin-EDTA (GIBCO 25200072) for 3-4 minutes in the cell culture chamber, and then diluted with growth media. The cells were spun down at 300×g at 4° C. for 5 minutes, resuspended with fresh growth media, and replated in a new flask.
# Cell viability assay and IC50 procedure: The media in the cell culture dish was aspirated, and the cells were washed with 1×PBS. The cells were detached from the plate by 4-minute incubation with 0.25% Trypsin-EDTA in the cell culture chamber. The cells were then diluted with DMEM and were spun down at 300×g at 4° C. for 5 minutes. The media was aspirated, and the cell pellet was resuspended in fresh DMEM. The cells were counted and seeded in 6-well culture plates at 50,000 cells/well and incubated overnight. Alongside the 6-well plates, 35 mm glass bottom confocal plates (Fisher Scientific NC0409658) were also seeded with 50,000 cells/plate. 24 hours after the initial seeding, the media in the plates were aspirated and the cells were washed with 1×PBS. […] The wash buffer was aspirated from the plates and 2 mL of the corresponding diazonium dilutions was added to the respective wells in the 6-well plates, all in triplicate, in addition to the confocal plates. All plates were incubated in ambient light for 45 minutes in the cell culture hood and then for 1 hour in the cell culture chamber (37° C. with 5% CO2). Control wells with 2 mL 1×PBS pH 6.6 alone with no diazonium as well as additional control wells with 2 mL DMEM alone with no diazonium, all in triplicate, were also incubated alongside the wells with the diazonium solutions. The plates were then removed from the incubators and the solutions from all the dishes were aspirated and replaced with 2 mL of fresh DMEM. The plates were incubated in the cell culture chamber for 3 days. After the 3-day incubation, the respective cell viability of each well was measured using the PrestoBlue™ Cell Viability Procedure. To each well was added 200 μL of 10× PrestoBlue™ Cell Viability Reagent (ThermoFisher Scientific A13261) and the plates were then incubated in the cell culture chamber for 3 hours. The plates were then analyzed using a plate reader (SpectraMax iD5) by measuring the fluorescence at an excitation of 560 nm and emission of 590 nm. […]
molecule,measurement,setting,value
"N#[N+]c1ccc([N+](=O)[O-])c2ccccc12 [Compound 7, 4-nitro-naphthalene-1-diazonium tetrafluoroborate]",EC50,[1]; read-out: EC50 value,531 nM
"COc1ccc([N+]#N)cc1.F[B-](F)(F)F [Compound 5, 4-methoxy-benzene-1-diazonium tetrafluoroborate]",EC50,[1]; read-out: EC50 value,69800 nM
tetrakis(benzene-4-diazonium)ethylene tetrafluoroborate [Compound 27],DNA cleavage potency (in words),[1],excellent potency
same,EC50,[1]; read-out: EC50 value,33 nM
"F[B-](F)(F)F.N#[N+]c1ccccc1 [Compound 1, benzenediazonium tetrafluoroborate]",DNA cleavage potency (in words),[1],limited activity
same,EC50,[1]; read-out: EC50,18800 nM
"(R)-[1,1′-binaphthalene]-2,2′-bisdiazonium tetrafluoroborate [Compound 23]",EC50,[1]; read-out: EC50 value,42 nM
"benzophenone-4,4′-bisdiazonium tetrafluoroborate [Compound 17]",EC50,[1]; read-out: EC50 value,24 nM
"(S)-[1,1′-binaphthalene]-2,2′-bisdiazonium tetrafluoroborate [Compound 24]",EC50,[1]; read-out: EC50 value,140 nM
"F[B-](F)(F)F.F[B-](F)(F)F.N#[N+]c1cccc2c([N+]#N)cccc12 [Compound 10, naphthalene-1,5-bisdiazonium tetrafluoroborate]",cleavage of pBR322 (gel pattern),"pBR322; 500 nM, 525 nm irradiation 1.5 hours",two new bands
same,EC50,[1]; read-out: EC50 value,31.7 nM
same,diazonium/IS ratio,[2]; 1 hour,0.59
same,diazonium/IS ratio,[2]; 2 hours,0.56
same,diazonium/IS ratio,[2]; 6 hours,0.49
same,diazonium/IS ratio,[2]; 24 hours,0.41
same,diazonium/IS ratio,[2]; T0 (immediately after sample preparation),0.62
"benzophenone-3,3′-bisdiazonium tetrafluoroborate [Compound 18]",EC50,[1]; read-out: EC50 value,31.5 nM
"Nc1cccc2c(N)cccc12 [1,5-diaminonaphthalene, reference compound]",cleavage of pBR322 (gel pattern),pBR322,no cleavage was observed
"N^1,N^3,N^5-tris(benzene-4-diazonium)benzene-1,3,5-tricarboxamide tetrafluoroborate [Compound 29]",DNA cleavage potency (in words),[1],no notable improvement
same,EC50,[1]; read-out: EC50 value,101 nM
tetrakis(benzene-4-diazonium)methane tetrafluoroborate [Compound 28],"decrease in activity, degassed vs standard deionized water",[3],2 log scale
same,EC50,[3]; degassed deionized water,172 nM
same,EC50,"[3]; standard deionized water, run alongside as control",1.64 nM
same,concentrations giving noticeable cleavage into low molecular weight fragments,"[4]; pre-linearized pBR322 (Form III, 40 μM/bp), 525 nm light in water for 1 hour",≥ 100 nM
same,EC50,"[4]; read-out: EC50 value, linearized pBR322, green light 525 nm, supercoiled pBR322 as internal standard",126 nM
same,EC50,[5],3.62 nM and 13.7 nM and 14.9 nM
same,DNA cleavage potency (in words),[1],excellent potency
same,EC50,[1],0.00214 µg/mL
same,EC50,[1]; read-out: EC50 value,2.76 nM
same,EC50,"[6]; read-out: DNA cleavage EC50 value, in the dark without cysteine",976 nM and ~1000 nM and 1000 nM
same,EC50,"[6]; read-out: EC50 value, presence of cysteine in the dark",30.8 nM
same,plate confluency after 3 days,HeLa cells; 1.25 μM,over 90%
same,plate confluency after 3 days,HeLa cells; 10 μM,less than 10%
same,IC50 (cell viability),"HeLa cells; ambient light 45 min then 1 h at 37° C., 3-day incubation",5.23 µg/mL
same,IC50,"HeLa cells; read-out: IC50 (cell viability), ambient light 45 min then 1 h at 37° C., 3-day incubation",6710 nM
ethidium bisdiazonium tetrafluoroborate [Compound 26],DNA cleavage potency (in words),[1],only modest potency
same,EC50,[1]; read-out: EC50 value,136 nM

# — patent US20250170265A1 (priority 2023, published 2025)
